Assay results: PubChem BioAssay AID1963975 (Molecular Pharmacology Branch, DTP, NCI, 2024)

System: 624824-186-R-J2-PDC multicell spheroids, viability
Assay: Anticancer human tumor 624824-186-R-J2-PDC patient-derived colon adenocarcinoma cell line growth inhibition [PI3K]
Details: for IC50: curve of first compound; for viability, T/C: stronger effect = lower value
Outline: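 Tumor cells were combined with HUVEC and MSCs into spheroids, then dosed with PI3K-inhibitor combinations over half-log ranges capped near clinical Cmax or 10 microM.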

[1] = second compound 0.00316 µM, first compound 0.000316 µM
[2] = second compound 0.00316 µM, first compound 0.001 µM
[3] = second compound 0.00316 µM, first compound 0.00316 µM
[4] = second compound 0.00316 µM, first compound 0.01 µM
[5] = second compound 0.00316 µM, first compound 0.0316 µM
[6] = second compound 0.00316 µM, first compound 0.1 µM
[7] = second compound 0.01 µM, first compound 0.000316 µM
[8] = second compound 0.01 µM, first compound 0.001 µM
[9] = second compound 0.01 µM, first compound 0.00316 µM
[10] = second compound 0.01 µM, first compound 0.01 µM
[11] = second compound 0.01 µM, first compound 0.0316 µM
[12] = second compound 0.01 µM, first compound 0.1 µM
[13] = second compound 0.0316 µM, first compound 0.000316 µM
[14] = second compound 0.0316 µM, first compound 0.001 µM
[15] = second compound 0.0316 µM, first compound 0.00316 µM
[16] = second compound 0.0316 µM, first compound 0.01 µM
[17] = second compound 0.0316 µM, first compound 0.0316 µM
[18] = second compound 0.0316 µM, first compound 0.1 µM
[19] = second compound 0.1 µM, first compound 0.000316 µM
[20] = second compound 0.1 µM, first compound 0.001 µM
[21] = second compound 0.1 µM, first compound 0.00316 µM
[22] = second compound 0.1 µM, first compound 0.01 µM
[23] = second compound 0.1 µM, first compound 0.0316 µM
[24] = second compound 0.1 µM, first compound 0.1 µM
[25] = second compound 0.316 µM, first compound 0.000316 µM
[26] = second compound 0.316 µM, first compound 0.001 µM
[27] = second compound 0.316 µM, first compound 0.00316 µM
[28] = second compound 0.316 µM, first compound 0.01 µM
[29] = second compound 0.316 µM, first compound 0.0316 µM
[30] = second compound 0.316 µM, first compound 0.1 µM
[31] = second compound 1 µM, first compound 0.000316 µM
[32] = second compound 1 µM, first compound 0.001 µM
[33] = second compound 1 µM, first compound 0.00316 µM
[34] = second compound 1 µM, first compound 0.01 µM
[35] = second compound 1 µM, first compound 0.0316 µM
[36] = second compound 1 µM, first compound 0.1 µM
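Note: spheroids exposed to agents for 7 days before viability read.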
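Throughout, for viability, T/C: 100% = DMSO vehicle treated spheroids.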

## CC(=O)c1c(C)c2cnc(Nc3ccc(N4CCNCC4)cn3)nc2n(C2CCCC2)c1=O + COc1c(OCCCN2CCOCC2)ccc2c3n(c(=NC(=O)c4cnc(N)nc4)nc12)CCN3
Second compound 0.00316 µM
  IC50: > 100 nM
Second compound 0.01 µM
  IC50: > 100 nM
Second compound 0.0316 µM
  IC50: > 100 nM
Second compound 0.1 µM
  IC50: > 100 nM
Second compound 0.316 µM
  IC50: > 100 nM
Second compound 1 µM
  IC50: > 100 nM
[1]
  viability, T/C: 95.5%
[2]
  viability, T/C: 94.7%
[3]
  viability, T/C: 90.6%
[4]
  viability, T/C: 98.7%
[5]
  viability, T/C: 105%
[6]
  viability, T/C: 84%
[7]
  viability, T/C: 104%
[8]
  viability, T/C: 90%
[9]
  viability, T/C: 86.7%
[10]
  viability, T/C: 94.3%
[11]
  viability, T/C: 97.6%
[12]
  viability, T/C: 96.5%
[13]
  viability, T/C: 82.7%
[14]
  viability, T/C: 94.4%
[15]
  viability, T/C: 91.4%
[16]
  viability, T/C: 86.7%
[17]
  viability, T/C: 89%
[18]
  viability, T/C: 69.2%
[19]
  viability, T/C: 65.9%
[20]
  viability, T/C: 77.2%
[21]
  viability, T/C: 78.2%
[22]
  viability, T/C: 70.8%
[23]
  viability, T/C: 70%
[24]
  viability, T/C: 55.6%
[25]
  viability, T/C: 61.4%
[26]
  viability, T/C: 68.6%
[27]
  viability, T/C: 61.4%
[28]
  viability, T/C: 57.9%
[29]
  viability, T/C: 66.9%
[30]
  viability, T/C: 53.4%
[31]
  viability, T/C: 59%
[32]
  viability, T/C: 58%
[33]
  viability, T/C: 58.7%
[34]
  viability, T/C: 58.4%
[35]
  viability, T/C: 62.9%
[36]
  viability, T/C: 55.7%

## CC(C)n1nc(-c2ccc3oc(N)nc3c2)c2c(N)ncnc21 + COc1c(OCCCN2CCOCC2)ccc2c3n(c(=NC(=O)c4cnc(N)nc4)nc12)CCN3
Second compound 0.00316 µM
  IC50: > 100 nM
Second compound 0.01 µM
  IC50: > 100 nM
Second compound 0.0316 µM
  IC50: > 100 nM
Second compound 0.1 µM
  IC50: > 100 nM
Second compound 0.316 µM
  IC50: 75.3 nM
Second compound 1 µM
  IC50: > 100 nM
[1]
  viability, T/C: 82.8%
[2]
  viability, T/C: 95.9%
[3]
  viability, T/C: 82.4%
[4]
  viability, T/C: 99.5%
[5]
  viability, T/C: 84%
[6]
  viability, T/C: 70.1%
[7]
  viability, T/C: 104%
[8]
  viability, T/C: 83.2%
[9]
  viability, T/C: 93.2%
[10]
  viability, T/C: 86.7%
[11]
  viability, T/C: 80.7%
[12]
  viability, T/C: 68.9%
[13]
  viability, T/C: 90.3%
[14]
  viability, T/C: 78.8%
[15]
  viability, T/C: 81.4%
[16]
  viability, T/C: 69.6%
[17]
  viability, T/C: 69.9%
[18]
  viability, T/C: 54.5%
[19]
  viability, T/C: 70.1%
[20]
  viability, T/C: 77.3%
[21]
  viability, T/C: 58.5%
[22]
  viability, T/C: 57.3%
[23]
  viability, T/C: 58.3%
[24]
  viability, T/C: 49.7%
[25]
  viability, T/C: 70.6%
[26]
  viability, T/C: 60.7%
[27]
  viability, T/C: 60.7%
[28]
  viability, T/C: 59.1%
[29]
  viability, T/C: 53.7%
[30]
  viability, T/C: 47.8%
[31]
  viability, T/C: 64.6%
[32]
  viability, T/C: 52.7%
[33]
  viability, T/C: 55%
[34]
  viability, T/C: 61.2%
[35]
  viability, T/C: 56.1%
[36]
  viability, T/C: 52%

## CCCS(=O)(=O)Nc1ccc(F)c(C(=O)c2c[nH]c3ncc(-c4ccc(Cl)cc4)cc23)c1F + COc1c(OCCCN2CCOCC2)ccc2c3n(c(=NC(=O)c4cnc(N)nc4)nc12)CCN3
Second compound 0.00316 µM
  IC50: 9490 nM
Second compound 0.01 µM
  IC50: 7330 nM
Second compound 0.0316 µM
  IC50: 2200 nM
Second compound 0.1 µM
  IC50: 1760 nM
Second compound 0.316 µM
  IC50: 178 nM
Second compound 1 µM
  IC50: 111 nM
[5]
  viability, T/C: 84.7%
[6]
  viability, T/C: 95.8%
Second compound 0.00316 µM, first compound 0.316 µM
  viability, T/C: 79.4%
Second compound 0.00316 µM, first compound 1 µM
  viability, T/C: 111%
Second compound 0.00316 µM, first compound 3.16 µM
  viability, T/C: 123%
Second compound 0.00316 µM, first compound 10 µM
  viability, T/C: 47.7%
[11]
  viability, T/C: 81.5%
[12]
  viability, T/C: 95.2%
Second compound 0.01 µM, first compound 0.316 µM
  viability, T/C: 82.3%
Second compound 0.01 µM, first compound 1 µM
  viability, T/C: 87.4%
Second compound 0.01 µM, first compound 3.16 µM
  viability, T/C: 82.1%
Second compound 0.01 µM, first compound 10 µM
  viability, T/C: 38%
[17]
  viability, T/C: 84.2%
[18]
  viability, T/C: 64.8%
Second compound 0.0316 µM, first compound 0.316 µM
  viability, T/C: 61.6%
Second compound 0.0316 µM, first compound 1 µM
  viability, T/C: 55.6%
Second compound 0.0316 µM, first compound 3.16 µM
  viability, T/C: 60.6%
Second compound 0.0316 µM, first compound 10 µM
  viability, T/C: 30.2%
[23]
  viability, T/C: 65.3%
[24]
  viability, T/C: 54.4%
Second compound 0.1 µM, first compound 0.316 µM
  viability, T/C: 50%
Second compound 0.1 µM, first compound 1 µM
  viability, T/C: 48.1%
Second compound 0.1 µM, first compound 3.16 µM
  viability, T/C: 49.8%
Second compound 0.1 µM, first compound 10 µM
  viability, T/C: 21.4%
[29]
  viability, T/C: 64.3%
[30]
  viability, T/C: 51%
Second compound 0.316 µM, first compound 0.316 µM
  viability, T/C: 42.8%
Second compound 0.316 µM, first compound 1 µM
  viability, T/C: 37.9%
Second compound 0.316 µM, first compound 3.16 µM
  viability, T/C: 39.5%
Second compound 0.316 µM, first compound 10 µM
  viability, T/C: 18.6%
[35]
  viability, T/C: 56.5%
[36]
  viability, T/C: 50.1%
Second compound 1 µM, first compound 0.316 µM
  viability, T/C: 44.2%
Second compound 1 µM, first compound 1 µM
  viability, T/C: 35.4%
Second compound 1 µM, first compound 3.16 µM
  viability, T/C: 35.1%
Second compound 1 µM, first compound 10 µM
  viability, T/C: 20.6%
